From patent US20260217701A1, “SELECTIVE BET INHIBITORS AND USES THEREOF” (Tay Therapeutics Limited, priority 2022, published 2026)
“And” between values parts separate entries of the source, which are not always exact repeats. Identical values can stand only once.

Tested on: collagen-induced arthritis
Assay: Collagen-induced arthritis (CIA) model: clinical scores and paw volume; for Animal paw volume percent change (%): reference of the scale not given here; for Average animal paw volume percent change (%): reference of the scale not given here
Format: in vivo, Lewis rats
Conditions: for Overall Clinical Score: individual animals 1-8; for Animal paw volume / Animal paw volume percent change (%): individual animals
[1] = Day 15, CIA + Compound A 3 mg/kg
[2] = Day 15, CIA + Compound A 10 mg/kg
[3] = Day 18, L paw, group 5 CIA + Compound A 1 mg/kg
[4] = Day 18, L paw, group 6 CIA + Compound A 3 mg/kg
[5] = Day 18, L paw, group 7 CIA + Compound A 10 mg/kg
[6] = Day 18, R paw, group 5 CIA + Compound A 1 mg/kg
[7] = Day 18, R paw, group 6 CIA + Compound A 3 mg/kg
[8] = Day 18, R paw, group 7 CIA + Compound A 10 mg/kg
[9] = Day 18, CIA + Compound A 1 mg/kg
[10] = Day 18, CIA + Compound A 3 mg/kg
[11] = Day 18, CIA + Compound A 10 mg/kg
[12] = Day 19, L paw, group 5 CIA + Compound A 1 mg/kg
[13] = Day 19, L paw, group 6 CIA + Compound A 3 mg/kg
[14] = Day 19, L paw, group 7 CIA + Compound A 10 mg/kg
[15] = Day 19, R paw, group 5 CIA + Compound A 1 mg/kg
[16] = Day 19, R paw, group 6 CIA + Compound A 3 mg/kg
[17] = Day 19, R paw, group 7 CIA + Compound A 10 mg/kg
[18] = Day 19, CIA + Compound A 1 mg/kg
[19] = Day 19, CIA + Compound A 3 mg/kg
[20] = Day 21, L paw, group 5 CIA + Compound A 1 mg/kg
[21] = Day 21, L paw, group 6 CIA + Compound A 3 mg/kg
[22] = Day 21, L paw, group 7 CIA + Compound A 10 mg/kg
[23] = Day 21, R paw, group 5 CIA + Compound A 1 mg/kg

## Cn1cc(-c2ccccc2)c(-c2cn(C)c(=O)c3[nH]c(-c4cnn(C(F)(F)F)c4)cc23)cc1=O [Compound A, 6-methyl-4-(1-methyl-2-oxo-5-phenyl-1,2-dihydropyridin-4-yl)-2-(1-(trifluoromethyl)-1H-pyrazol-4-yl)-1,6-dihydro-7H-pyrrolo[2,3-c]pyridin-7-one]
[1]
  Average detailed clinical score, score: 1
  Average overall clinical score: 1
Day 15, CIA + Compound A 3 mg/kg, 3 mg/kg
  Overall Clinical Score: 0 (2×) and 1
[2]
  Average detailed clinical score, left forelimb: 0
  Average detailed clinical score, left hind limb: 0.75
  Average detailed clinical score, right forelimb: 0
  Average detailed clinical score, right hind limb: 0.5
  Average detailed clinical score, score: 1.25
  Average overall clinical score: 1
Day 15, L paw, Group 5 (CIA + Compound A 1 mg/kg), 1 mg/kg
  Animal paw volume: 1.45 mL and 1.84 mL and 1.77 mL and 1.64 mL and 1.48 mL and 1.66 mL and 1.92 mL
Day 15, L paw, Group 6 (CIA + Compound A 3 mg/kg), 3 mg/kg
  Animal paw volume: 1.49 mL (2×) and 1.59 mL and 1.48 mL and 1.54 mL and 1.68 mL
Day 15, R paw, Group 5 (CIA + Compound A 1 mg/kg), 1 mg/kg
  Animal paw volume: 1.42 mL and 1.81 mL and 1.56 mL and 1.65 mL and 1.50 mL and 1.72 mL and 1.59 mL
Day 15, R paw, Group 6 (CIA + Compound A 3 mg/kg), 3 mg/kg
  Animal paw volume: 1.39 mL and 1.41 mL and 1.46 mL and 1.42 mL and 1.75 mL and 1.57 mL
[3]
  Average animal paw volume: 1.98 mL
  Average animal paw volume percent change (%): 49.46%
[4]
  Average animal paw volume: 1.64 mL
  Average animal paw volume percent change (%): 24.36%
[5]
  Average animal paw volume: 1.61 mL
  Average animal paw volume percent change (%): 22.68%
Day 18, L paw, group 5 CIA + Compound A 1 mg/kg, 1 mg/kg
  Animal paw volume percent change (%): 55.17% and 87.60% and 51.66% and 66.42% and 24.72% and 52.08% and 52.83%
Day 18, L paw, group 6 CIA + Compound A 3 mg/kg, 3 mg/kg
  Animal paw volume percent change (%): 29.66% and 54.47% and 6.08% and 10.26% and 18.39% and 23.97%
[6]
  Average animal paw volume: 1.91 mL
  Average animal paw volume percent change (%): 44.06%
[7]
  Average animal paw volume: 1.78 mL
  Average animal paw volume percent change (%): 35.37%
[8]
  Average animal paw volume: 1.76 mL
  Average animal paw volume percent change (%): 34.04%
Day 18, R paw, group 5 CIA + Compound A 1 mg/kg, 1 mg/kg
  Animal paw volume percent change (%): 59.00% and 89.96% and 33.45% and 53.58% and 18.45% and 55.13% and 36.98%
Day 18, R paw, group 6 CIA + Compound A 3 mg/kg, 3 mg/kg
  Animal paw volume percent change (%): 61.13% and 22.57% and 44.15% and 30.48% and 50.58% and 23.22%
[9]
  Average detailed clinical score, left forelimb: 0.50
  Average detailed clinical score, left hind limb: 3.88
  Average detailed clinical score, right forelimb: 0.50
  Average detailed clinical score, right hind limb: 3.88
  Average detailed clinical score, score: 8.75
  Average overall clinical score: 4
Day 18, CIA + Compound A 1 mg/kg, 1 mg/kg
  Overall Clinical Score: 0 and 5 (3×) and 7 and 6 and 2 and 4
[10]
  Average detailed clinical score, left forelimb: 0.00
  Average detailed clinical score, left hind limb: 2.50
  Average detailed clinical score, right forelimb: 0.88
  Average detailed clinical score, right hind limb: 2.25
  Average detailed clinical score, score: 5.63
  Average overall clinical score: 3
Day 18, CIA + Compound A 3 mg/kg, 3 mg/kg
  Overall Clinical Score: 4 and 3 and 2
[11]
  Average detailed clinical score, left forelimb: 0.00
  Average detailed clinical score, left hind limb: 1.13
  Average detailed clinical score, right forelimb: 0.00
  Average overall clinical score: 3
Day 18, L paw, Group 5 (CIA + Compound A 1 mg/kg), 1 mg/kg
  Animal paw volume: 2.03 mL (2×) and 2.42 mL and 2.06 mL and 2.21 mL and 1.67 mL and 2.02 mL
Day 18, L paw, Group 6 (CIA + Compound A 3 mg/kg), 3 mg/kg
  Animal paw volume: 1.71 mL and 1.99 mL and 1.40 mL and 1.51 mL and 1.55 mL and 1.66 mL
Day 18, R paw, Group 5 (CIA + Compound A 1 mg/kg), 1 mg/kg
  Animal paw volume: 2.08 mL and 2.46 mL and 1.84 mL and 2.04 mL (2×) and 1.61 mL and 1.82 mL
Day 18, R paw, Group 6 (CIA + Compound A 3 mg/kg), 3 mg/kg
  Animal paw volume: 2.14 mL and 1.58 mL and 1.91 mL and 1.76 mL and 1.95 mL and 1.65 mL
[12]
  Average animal paw volume: 1.97 mL
  Average animal paw volume percent change (%): 49.19%
[13]
  Average animal paw volume: 1.70 mL
  Average animal paw volume percent change (%): 29.54%
[14]
  Average animal paw volume: 1.66 mL
  Average animal paw volume percent change (%): 26.62%
Day 19, L paw, group 5 CIA + Compound A 1 mg/kg, 1 mg/kg
  Animal paw volume percent change (%): 55.17% and 87.60% and 49.82% and 69.06% and 22.47% and 52.08% and 53.58%
Day 19, L paw, group 6 CIA + Compound A 3 mg/kg, 3 mg/kg
  Animal paw volume percent change (%): 43.35% and 54.47% and 22.81% and 10.99% and 29.12%
[15]
  Average animal paw volume: 1.92 mL
  Average animal paw volume percent change (%): 44.50%
[16]
  Average animal paw volume: 1.78 mL
  Average animal paw volume percent change (%): 35.81%
[17]
  Average animal paw volume: 1.75 mL
  Average animal paw volume percent change (%): 33.14%
Day 19, R paw, group 5 CIA + Compound A 1 mg/kg, 1 mg/kg
  Animal paw volume percent change (%): 68.20% and 87.26% and 33.45% and 54.34% and 17.71% and 54.75% and 35.85%
Day 19, R paw, group 6 CIA + Compound A 3 mg/kg, 3 mg/kg
  Animal paw volume percent change (%): 61.89% and 25.68% and 43.02% and 29.74% and 52.90%
[18]
  Average detailed clinical score, left forelimb: 1.13
  Average detailed clinical score, left hind limb: 4.00
  Average detailed clinical score, right forelimb: 1.00
  Average detailed clinical score, right hind limb: 3.75
  Average detailed clinical score, score: 9.88
  Average overall clinical score: 5
Day 19, CIA + Compound A 1 mg/kg, 1 mg/kg
  Overall Clinical Score: 0 and 6 (5×) and 8 and 3
[19]
  Average detailed clinical score, left forelimb: 0.00
  Average detailed clinical score, left hind limb: 2.38
  Average detailed clinical score, right forelimb: 1.13
  Average detailed clinical score, right hind limb: 2.88
  Average detailed clinical score, score: 6.38
  Average overall clinical score: 4
Day 19, CIA + Compound A 3 mg/kg, 3 mg/kg
  Overall Clinical Score: 5 and 4 (2×)
Day 19, CIA + Compound A 10 mg/kg
  Average overall clinical score: 4
Day 19, L paw, Group 5 (CIA + Compound A 1 mg/kg), 1 mg/kg
  Animal paw volume: 2.03 mL (2×) and 2.42 mL and 2.24 mL and 1.64 mL and 2.02 mL and 2.04 mL
Day 19, L paw, Group 6 (CIA + Compound A 3 mg/kg), 3 mg/kg
  Animal paw volume: 1.89 mL and 1.99 mL and 1.62 mL and 1.52 mL and 1.69 mL
Day 19, R paw, Group 5 (CIA + Compound A 1 mg/kg), 1 mg/kg
  Animal paw volume: 2.20 mL and 2.43 mL and 1.84 mL and 2.05 mL and 1.60 mL and 2.04 mL and 1.80 mL
Day 19, R paw, Group 6 (CIA + Compound A 3 mg/kg), 3 mg/kg
  Animal paw volume: 2.15 mL and 1.62 mL and 1.90 mL and 1.75 mL and 1.98 mL
[20]
  Average animal paw volume: 2.01 mL
  Average animal paw volume percent change (%): 52.06%
[21]
  Average animal paw volume: 1.73 mL
  Average animal paw volume percent change (%): 31.54%
[22]
  Average animal paw volume: 1.72 mL
  Average animal paw volume percent change (%): 31.20%
Day 21, L paw, group 5 CIA + Compound A 1 mg/kg, 1 mg/kg
  Animal paw volume percent change (%): 56.70% and 89.53% and 53.14% and 70.94% and 22.47% and 56.60% and 61.89%
Day 21, L paw, group 6 CIA + Compound A 3 mg/kg, 3 mg/kg
  Animal paw volume percent change (%): 46.01% and 70.04% and 24.33% and 10.99% and 37.55%
[23]
  Average animal paw volume: 2.01 mL
  Average animal paw volume percent change (%): 51.46%
Day 21, R paw, group 6 CIA + Compound A 3 mg/kg
  Average animal paw volume: 1.82 mL
